In patent publication US20070281938A1, “Inhibitors of 11-Beta-Hydroxy Steroid Dehydrogenase Type 1” (Amgen Inc., priority 2004, published 2007) one finds Ki data, which are given here for 3 compounds.

The assay concerns the target T1, human 11-β-hydroxysteroid dehydrogenase type-1 enzyme (11-β-HSD1) (Homo sapiens, UniProt P28845).
T1 construct: made in house; host or cells: Pichia pastoris (cell homogenate or microsomes)
The experiment in a line: Scintillation Proximity Assay, 11-β-HSD1 enzyme assay (Ki). Format: biochemical. Particulars: human 11-β-HSD1 expressed in Pichia pastoris; Ki calculated from IC50 (Cheng-Prusoff). The text has this:
[1,2(n)—^3H]-cortisone was purchased from Amersham Pharmacia Biotech. Anti-cortisol monoclonal mouse antibody, clone 6D6.7 was obtained from Immunotech and Scintillation proximity assay (SPA) beads coated with monoclonal antimouse antibodies were from Amersham Pharmacia Biotech. NADPH, tetrasodium salt was from Calbiochem and glucose-6-phosphate (G-6-P) was supplied by Sigma. The human 11-β-hydroxysteroid dehydrogenase type-1 enzyme (11-β-HSD1) was expressed in Pichiapastoris. 18-β-glycyrrhetinic acid (GA) was obtained from Sigma. The serial dilutions of the compounds were performed on a Tecan Genesis RSP 150. Compounds to be tested were dissolved in DMSO (1 mM) and diluted in 50 mM Tris-HCl, pH 7.2 containing 1 mM EDTA.
The multiplication of plates was done on a WallacQuadra. The amount of the product [^3H]-cortisol, bound to the beads was determined in a Packard, Top Count microplate liquid scintillation counter.
The 11-β-HSD1 enzyme assay was carried out in 96 well microtiter plates (Packard, Optiplate) in a total well volume of 220 μL and contained 30 mM Tris-HCl, pH 7.2 with 1 mM EDTA, a substrate mixture tritiated Cortisone/NADPH (175 nM/181 μM), G-6-P (1 mM) and inhibitors in serial dilutions (9 to 0.15 μM). […]
The plates were covered with plastic film and incubated on a shaker for 30 minutes, at room temperature, before counting. The amount of [^3H]-cortisol, bound to the beads was determined in a microplate liquid scintillation counter. […] The Ki value is calculated from IC50 and the Km value is calculated using the Cheng Prushoff equation (with reversible inhibition that follows the Michaelis-Menten equation): […] [Cheng, Y. C.; Prushoff, W. H. Biochem. Pharmacol. 1973, 22, 3099-3108]. The IC50 is measured experimentally in an assay wherein the decrease of the turnover of cortisone to cortisol is dependent on the inhibition potential of each substance. […]

T1 sequence (P28845 whole entry): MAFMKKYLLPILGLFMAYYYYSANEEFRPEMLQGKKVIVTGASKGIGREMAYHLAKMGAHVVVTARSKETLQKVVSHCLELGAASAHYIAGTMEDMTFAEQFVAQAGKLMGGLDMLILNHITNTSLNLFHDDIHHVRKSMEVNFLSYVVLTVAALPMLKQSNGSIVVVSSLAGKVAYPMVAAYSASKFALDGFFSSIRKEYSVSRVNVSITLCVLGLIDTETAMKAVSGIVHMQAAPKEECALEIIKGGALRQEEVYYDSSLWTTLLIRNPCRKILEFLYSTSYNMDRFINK

Consider `CC1(C)SC(NCC2CCCCC2)=NC1=O` [Example 14, 2-[(cyclohexylmethyl)amino]-5,5-dimethyl-1,3-thiazol-4(5H)-one], for which the Ki was 107 nM.
With `O=C1N=C(NC2CCCCCC2)SC12CCC2` [Example 10, 6-(Cycloheptylamino)-5-thia-7-azaspiro[3.4]oct-6-en-8-one], the Ki was 250 nM.
As for `CC(C)C1SC(NC2(c3ccc(Cl)cc3)CCC2)=NC1=O` (stereo not drawn) [Example 48, 2-{[1-(4-Chlorophenyl)cyclobutyl]amino}-5-isopropyl-1,3-thiazol-4(5H)-one], the inhibition constant (Ki) is 174 nM.
